Source: patent US12065443B2, “Compounds and pharmaceutical compositions thereof for the treatment of diseases” (priority 2017, dated 2024)

Key:
Assay in all cases: biochemical
SIK1 = target: T1, SIK1 (Homo sapiens, UniProt P57059); settings: 33P radioactive SIK kinase assay, AMARA peptide, 10 μM ATP; read-out: SIK1 IC50
T1 construct: purchased Carna Biosciences 02-131
Description: (§1) The principle of the ^33P radioactive kinase assay consists in measuring the incorporated ^33P into the substrate AMARA peptide when phosphorylated by SIK1, SIK2 or SIK3 using [^33P]-g-ATP, which correlates with kinase activity.
(§2) 1% DMSO and 10 μM staurosporine final concentrations are used as negative and positive controls.
(§3) 11 μL of enzyme-substrate mixture is added on the assay plates. The reactions are started by adding 9 μL ATP mixture, consisting of non-labeled and ^33P-labeled ATP, on the assay plates.
(§4) The reactions are stopped by adding 25 μL phosphoric acid (150 mM) to the reactions.
(§5) After harvesting the kinase reactions, the filter plates are washed 6 times with phosphoric acid (75 mM). […] The top of the plates are sealed with TopSeal-A. Read-out is performed with a TopCount instrument (PerkinElmer Inc.).

SIK2 = target: T2, SIK2 (Homo sapiens, UniProt Q9H0K1); settings: 33P radioactive SIK kinase assay, AMARA peptide, 10 μM ATP
T2 construct: purchased ThermoFisher Scientific PV4792
T2 sequence (Q9H0K1 whole entry): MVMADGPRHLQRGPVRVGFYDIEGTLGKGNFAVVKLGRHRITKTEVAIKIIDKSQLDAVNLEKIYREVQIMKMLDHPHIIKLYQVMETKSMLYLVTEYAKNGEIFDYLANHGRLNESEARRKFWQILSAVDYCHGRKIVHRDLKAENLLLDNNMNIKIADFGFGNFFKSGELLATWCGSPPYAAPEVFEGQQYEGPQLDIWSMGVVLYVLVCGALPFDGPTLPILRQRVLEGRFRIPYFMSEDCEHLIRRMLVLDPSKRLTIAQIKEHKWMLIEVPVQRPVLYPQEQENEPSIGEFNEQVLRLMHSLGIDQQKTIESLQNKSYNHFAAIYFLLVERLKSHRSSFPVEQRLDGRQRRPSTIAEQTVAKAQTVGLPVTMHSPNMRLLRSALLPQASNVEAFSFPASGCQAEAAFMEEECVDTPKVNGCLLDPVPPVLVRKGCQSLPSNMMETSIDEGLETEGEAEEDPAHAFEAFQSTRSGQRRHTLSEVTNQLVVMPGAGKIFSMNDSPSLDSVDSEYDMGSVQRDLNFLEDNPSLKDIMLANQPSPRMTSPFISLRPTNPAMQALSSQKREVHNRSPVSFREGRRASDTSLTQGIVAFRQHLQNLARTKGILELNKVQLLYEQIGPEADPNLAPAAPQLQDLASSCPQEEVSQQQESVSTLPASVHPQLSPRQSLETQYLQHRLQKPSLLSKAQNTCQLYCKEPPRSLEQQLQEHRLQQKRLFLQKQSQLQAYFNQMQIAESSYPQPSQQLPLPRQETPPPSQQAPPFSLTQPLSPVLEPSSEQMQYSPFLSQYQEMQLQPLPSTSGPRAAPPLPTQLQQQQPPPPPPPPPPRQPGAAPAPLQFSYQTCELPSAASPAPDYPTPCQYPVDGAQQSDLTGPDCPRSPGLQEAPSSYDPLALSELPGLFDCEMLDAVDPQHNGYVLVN
Description: as §1, §2, §3, §4, §5

SIK3 = target: T3, SIK3 (Homo sapiens, UniProt Q9Y2K2)
T3 construct: purchased SignalChem S12-11G-100
T3 sequence (Q9Y2K2 whole entry): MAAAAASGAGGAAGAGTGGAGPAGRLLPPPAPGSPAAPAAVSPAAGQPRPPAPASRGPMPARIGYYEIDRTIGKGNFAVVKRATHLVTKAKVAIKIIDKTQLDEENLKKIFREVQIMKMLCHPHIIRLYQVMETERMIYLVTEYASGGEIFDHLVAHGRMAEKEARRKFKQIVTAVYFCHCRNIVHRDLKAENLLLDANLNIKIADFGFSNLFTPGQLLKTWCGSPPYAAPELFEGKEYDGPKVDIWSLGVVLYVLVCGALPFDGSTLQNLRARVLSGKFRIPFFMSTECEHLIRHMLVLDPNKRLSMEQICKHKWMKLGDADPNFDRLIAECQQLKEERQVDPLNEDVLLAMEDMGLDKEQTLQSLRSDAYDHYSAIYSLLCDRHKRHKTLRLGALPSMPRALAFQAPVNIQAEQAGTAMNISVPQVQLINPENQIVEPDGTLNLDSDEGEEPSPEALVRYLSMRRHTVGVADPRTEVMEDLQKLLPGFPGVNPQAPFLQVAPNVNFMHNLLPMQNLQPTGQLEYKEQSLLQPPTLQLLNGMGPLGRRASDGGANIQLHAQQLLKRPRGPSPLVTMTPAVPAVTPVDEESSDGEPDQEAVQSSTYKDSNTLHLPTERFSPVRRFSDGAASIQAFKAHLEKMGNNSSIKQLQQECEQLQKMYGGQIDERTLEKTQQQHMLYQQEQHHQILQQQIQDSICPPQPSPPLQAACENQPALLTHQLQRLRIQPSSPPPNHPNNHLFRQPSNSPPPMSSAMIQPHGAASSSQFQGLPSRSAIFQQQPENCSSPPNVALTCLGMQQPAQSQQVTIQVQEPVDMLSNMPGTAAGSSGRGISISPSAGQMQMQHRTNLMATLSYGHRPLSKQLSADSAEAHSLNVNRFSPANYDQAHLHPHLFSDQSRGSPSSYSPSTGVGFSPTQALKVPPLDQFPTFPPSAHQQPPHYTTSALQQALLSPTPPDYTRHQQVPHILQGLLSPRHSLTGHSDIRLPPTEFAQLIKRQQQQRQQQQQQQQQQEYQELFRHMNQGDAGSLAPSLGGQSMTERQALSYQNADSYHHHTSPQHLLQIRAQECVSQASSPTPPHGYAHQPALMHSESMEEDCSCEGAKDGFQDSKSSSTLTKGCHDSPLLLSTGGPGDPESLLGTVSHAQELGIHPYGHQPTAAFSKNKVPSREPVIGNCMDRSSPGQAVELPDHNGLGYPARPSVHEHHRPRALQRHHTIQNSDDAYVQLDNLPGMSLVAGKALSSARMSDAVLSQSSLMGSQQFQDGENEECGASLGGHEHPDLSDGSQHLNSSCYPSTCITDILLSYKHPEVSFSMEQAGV
Description: as §1, §2, §3, §4, §5

T1 sequence (P57059 whole entry): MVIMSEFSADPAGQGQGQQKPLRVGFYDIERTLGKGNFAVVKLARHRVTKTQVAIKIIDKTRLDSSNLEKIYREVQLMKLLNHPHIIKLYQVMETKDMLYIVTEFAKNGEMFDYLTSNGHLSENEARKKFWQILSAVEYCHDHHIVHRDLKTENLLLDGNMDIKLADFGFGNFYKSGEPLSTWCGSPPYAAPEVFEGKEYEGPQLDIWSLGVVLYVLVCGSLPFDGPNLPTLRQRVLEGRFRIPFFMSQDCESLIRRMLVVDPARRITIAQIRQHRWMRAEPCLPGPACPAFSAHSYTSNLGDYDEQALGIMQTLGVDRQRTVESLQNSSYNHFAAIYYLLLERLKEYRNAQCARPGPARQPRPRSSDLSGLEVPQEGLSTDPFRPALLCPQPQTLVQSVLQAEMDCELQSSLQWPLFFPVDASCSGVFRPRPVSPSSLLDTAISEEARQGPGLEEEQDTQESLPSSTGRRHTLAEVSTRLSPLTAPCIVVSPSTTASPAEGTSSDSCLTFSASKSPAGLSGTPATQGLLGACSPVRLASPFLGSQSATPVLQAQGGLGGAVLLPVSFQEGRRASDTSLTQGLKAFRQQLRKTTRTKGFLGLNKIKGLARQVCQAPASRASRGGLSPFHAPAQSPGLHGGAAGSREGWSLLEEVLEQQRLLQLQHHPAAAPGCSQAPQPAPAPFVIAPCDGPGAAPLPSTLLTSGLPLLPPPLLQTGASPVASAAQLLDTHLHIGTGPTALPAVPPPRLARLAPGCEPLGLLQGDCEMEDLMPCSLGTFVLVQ

| Structure (SMILES) | IC50 (SIK1) [nM] | IC50 (SIK2) [nM] | IC50 (SIK3) [nM] |
| --- | --- | --- | --- |
| COc1cc(-c2cnc3cc(-c4cc(C)no4)ccn23)cc(OC)c1C(=O)N[C@@H](C)C(F)(F)F [compound 224, 2,6-dimethoxy-4-[7-(3-methylisoxazol-5-yl)imidazo[1,2-a]pyridin-3-yl]-N-[(1S)-2,2,2-trifluoro-1-methyl-ethyl]benzamide] | 100 to 500 | 100 to 500 | 100 to 500 |
| COc1cc(-n2cnc3cc(-c4cnn(CC5CCCO5)c4)ccc32)cc(OC)c1C(=O)NCC(F)(F)F (stereo not drawn) [compound 111, 2,6-dimethoxy-4-[5-[1-(tetrahydrofuran-2-ylmethyl)pyrazol-4-yl]benzimidazol-1-yl]-N-(2,2,2-trifluoroethyl)benzamide] | 0.01 to 10 | 0.01 to 10 | 0.01 to 10 |
| COc1cc(-n2cnc3cc(-c4cnn(C)c4)ccc32)cc(OC)c1C(=O)NC1CCS(=O)(=O)C1 (stereo not drawn) [compound 66, N-(1,1-dioxothiolan-3-yl)-2,6-dimethoxy-4-[5-(1-methylpyrazol-4-yl)benzimidazol-1-yl]benzamide] | 100 to 500 | 100 to 500 | 100 to 500 |
| COc1cc(-n2cnc3cc(-c4cnn(C)c4)ccc32)cc(OC)c1C(=O)NCc1ccccn1 [compound 62, 2,6-dimethoxy-4-[5-(1-methylpyrazol-4-yl)benzimidazol-1-yl]-N-(2-pyridylmethyl)benzamide] | 100 to 500 | 100 to 500 | 100 to 500 |
| CCNC(=O)c1c(OC)cc(-n2cnc3cc(-c4cn(C)nc4C)ccc32)cc1OC [compound 8, 4-[5-(1,3-dimethylpyrazol-4-yl)benzimidazol-1-yl]-N-ethyl-2,6-dimethoxy-benzamide] | 100 to 500 | 10 to 100 | 100 to 500 |
| COc1cc(-n2cnc3cc(-c4nccn4C)ccc32)cc(OC)c1C(=O)NCC(F)(F)F [compound 134, 2,6-dimethoxy-4-[5-(1-methylimidazol-2-yl)benzimidazol-1-yl]-N-(2,2,2-trifluoroethyl)benzamide] | > 500 | 10 to 100 | 100 to 500 |
| CCNC(=O)c1c(OC)cc(-n2cnc3cc(-c4nnc(C)[nH]4)ccc32)cc1OC(F)F [compound 150, 2-(difluoromethoxy)-N-ethyl-6-methoxy-4-[5-(5-methyl-4H-1,2,4-triazol-3-yl)benzimidazol-1-yl]benzamide] | > 500 | > 500 | > 500 |
| COc1cc(-n2cnc3cc(-c4cnn(C)c4)ccc32)cc(OC)c1C(=O)N1CCC(OC(F)(F)F)CC1 [compound 198, [2,6-dimethoxy-4-[5-(1-methylpyrazol-4-yl)benzimidazol-1-yl]phenyl]-[4-(trifluoromethoxy)-1-piperidyl]methanone] | 100 to 500 | > 500 | 100 to 500 |
| COc1cc(-n2cnc3cc(-c4ccnnc4)ccc32)cc(OC)c1C(=O)NCC(F)(F)F [compound 93, 2,6-dimethoxy-4-(5-pyridazin-4-ylbenzimidazol-1-yl)-N-(2,2,2-trifluoroethyl)benzamide] | 100 to 500 | 10 to 100 | 10 to 100 |
| COc1cc(-n2cnc3cc(-c4cnn(C)c4)ccc32)cc(OC)c1C(=O)N1CC(O)(C2CC2)C1 [compound 220, (3-cyclopropyl-3-hydroxy-azetidin-1-yl)-[2,6-dimethoxy-4-[5-(1-methylpyrazol-4-yl)benzimidazol-1-yl]phenyl]methanone] | 10 to 100 | 10 to 100 | 10 to 100 |
| COc1cc(-n2cnc3cc(-c4cnn(C)c4)ccc32)cc(OC)c1C(=O)N1C(C)CC1C (stereo not drawn) [compound 181, [2,6-dimethoxy-4-[5-(1-methylpyrazol-4-yl)benzimidazol-1-yl]phenyl]-(2,4-dimethylazetidin-1-yl)methanone] | > 500 | > 500 | > 500 |
| COc1cc(-n2cnc3cc(-c4cnc(C)n4C)ccc32)cc(OC)c1C(=O)NCC(F)(F)F [compound 138, 4-[5-(2,3-dimethylimidazol-4-yl)benzimidazol-1-yl]-2,6-dimethoxy-N-(2,2,2-trifluoroethyl)benzamide] | > 500 | 100 to 500 | 100 to 500 |
| COc1cc(-n2cnc3cc(-c4cnn(C)c4)ccc32)cc(OC)c1C(=O)N1CCC1 [compound 162, azetidin-1-yl-[2,6-dimethoxy-4-[5-(1-methylpyrazol-4-yl)benzimidazol-1-yl]phenyl]methanone] | 100 to 500 | 100 to 500 | 10 to 100 |
| COc1cc(-c2cnc3cc(-c4cn(C)nc4C(F)(F)F)ccn23)cc(OC)c1C(=O)NCC(F)(F)F [compound 249, 2,6-dimethoxy-4-[7-[1-methyl-3-(trifluoromethyl)pyrazol-4-yl]imidazo[1,2-a]pyridin-3-yl]-N-(2,2,2-trifluoroethyl)benzamide] | 100 to 500 | 10 to 100 | 10 to 100 |
| COc1cc(-c2ccc3c(c2)ncn3-c2cc(OC)c(C(=O)NCC(F)(F)F)c(OC)c2)ccn1 [compound 106, 2,6-dimethoxy-4-[5-(2-methoxy-4-pyridyl)benzimidazol-1-yl]-N-(2,2,2-trifluoroethyl)benzamide] | 100 to 500 | 10 to 100 | 10 to 100 |
| COc1cc(-n2cnc3cc(-c4cnn(C)c4)ccc32)cc(OC)c1C(=O)NCC(C)C [compound 113, N-isobutyl-2,6-dimethoxy-4-[5-(1-methylpyrazol-4-yl)benzimidazol-1-yl]benzamide] | 10 to 100 | 10 to 100 | 10 to 100 |
| COc1cc(-n2cnc3cc(-c4cnn(C)c4)ccc32)cc(OC)c1C(=O)N1CC(O)C1 [compound 184, [2,6-dimethoxy-4-[5-(1-methylpyrazol-4-yl)benzimidazol-1-yl]phenyl]-(3-hydroxyazetidin-1-yl)methanone] | 100 to 500 | 100 to 500 | 100 to 500 |
| COc1cc(-n2cnc3cc(-c4ccc(N)nc4)ccc32)cc(OC)c1C(=O)NCC(F)(F)F [compound 38, 4-[5-(6-amino-3-pyridyl)benzimidazol-1-yl]-2,6-dimethoxy-N-(2,2,2-trifluoroethyl)benzamide] | 100 to 500 | 10 to 100 | 10 to 100 |
| COc1cc(-n2cnc3cc(-c4cnn(C)c4)ccc32)cc(OC)c1C(=O)NC1CCCCC1OC (stereo not drawn) [compound 161, 2,6-dimethoxy-N-(2-methoxycyclohexyl)-4-[5-(1-methylpyrazol-4-yl)benzimidazol-1-yl]benzamide] | > 500 | > 500 | > 500 |
| CCNC(=O)c1c(OC)cc(-n2cnc3cc(-c4noc(C)n4)ccc32)cc1OC(F)F [compound 136, 2-(difluoromethoxy)-N-ethyl-6-methoxy-4-[5-(5-methyl-l,2,4-oxadiazol-3-yl)benzimidazol-1-yl]benzamide] | > 500 | > 500 | > 500 |
| COc1cc(-n2cnc3cc(-n4cnc(C)n4)ccc32)cc(OC)c1C(=O)NCC(F)(F)F [Cpd 166, 2,6-dimethoxy-4-[5-(3-methyl-1,2,4-triazol-1-yl)benzimidazol-1-yl]-N-(2,2,2-trifluoroethyl)benzamide] | > 500 | > 500 | 100 to 500 |
| COc1cc(-n2cnc3cc(-c4cn[nH]c4)ccc32)cc(OC)c1C(=O)NCC(F)(F)F [compound 47, 2,6-dimethoxy-4-[5-(1H-pyrazol-4-yl)benzimidazol-1-yl]-N-(2,2,2-trifluoroethyl)benzamide] | 10 to 100 | 10 to 100 | 0.01 to 10 |
| COc1cc(-n2cnc3cc(-c4cnn(C)c4)ccc32)cc(OC)c1C(=O)N1CCC(c2ccccc2)C1 (stereo not drawn) [compound 196, [2,6-dimethoxy-4-[5-(1-methylpyrazol-4-yl)benzimidazol-1-yl]phenyl]-(3-phenylpyrrolidin-1-yl)methanone] | > 500 | > 500 | > 500 |
| COc1cc(-n2cnc3cc(-c4conc4C)ccc32)cc(OC)c1C(=O)NCC(F)(F)F [compound 108, 2,6-dimethoxy-4-[5-(3-methylisoxazol-4-yl)benzimidazol-1-yl]-N-(2,2,2-trifluoroethyl)benzamide] | 100 to 500 | 100 to 500 | 100 to 500 |
| COc1cc(-n2cnc3cc(-c4cnn(C)c4)ccc32)cc(OC)c1C(=O)Nc1cn(C)cn1 [compound 82, 2,6-dimethoxy-N-(1-methylimidazol-4-yl)-4-[5-(1-methylpyrazol-4-yl)benzimidazol-1-yl]benzamide] | 100 to 500 | 100 to 500 | 100 to 500 |
| COc1cc(-n2cnc3cc(-c4nnc(C)o4)ccc32)cc(OC)c1C(=O)NCC(F)(F)F [Cpd 167, 2,6-dimethoxy-4-[5-(5-methyl-1,3,4-oxadiazol-2-yl)benzimidazol-1-yl]-N-(2,2,2-trifluoroethyl)benzamide] | > 500 | > 500 | 100 to 500 |
| COc1cc(-n2cnc3cc(-c4cnn(C)c4)ccc32)cc(OC)c1C(=O)N1CC(OC)C1 [compound 190, [2,6-dimethoxy-4-[5-(1-methylpyrazol-4-yl)benzimidazol-1-yl]phenyl]-(3-methoxyazetidin-1-yl)methanone] | 10 to 100 | 10 to 100 | 100 to 500 |
| CCn1cc(-c2ccc3c(c2)ncn3-c2cc(OC)c(C(=O)N(C)CC#N)c(OC)c2)cn1 [compound 31, N-(cyanomethyl)-4-[5-(1-ethylpyrazol-4-yl)benzimidazol-1-yl]-2,6-dimethoxy-N-methyl-benzamide] | 100 to 500 | 100 to 500 | 10 to 100 |
